The values that follow come from US20130136809A1, “7-HYRDROXYFRULLANOLIDE ITS ANALOGS FOR PREVENTION CONTROL AND TREATMENT OF METABOLIC DISORDERS” (LAILA NUTRACEUTICALS, priority 2009, published 2013).

One assay has as its system PTP-1B. Briefly: PTP-1B activity in 3T3-L1 cell lysates (pNPP hydrolysis). Type of assay: cell-based, mouse. The following applies: 1.0 or 2.5 μg/ml; 48 h. The method, then: Equal number of 3T3-L1 mouse preadipocytes was seeded into cell culture dishes. After 24 h, the cells were treated either with different concentrations of 7-HF or […] Sodium vanadate ([…]) for further 48 h. Thereafter, the washed cells were lysed with cell lysis buffer and the clarified at 14,000 g for 10 min at 4° C. The protein concentrations were calculated by Bradford method and the cell lysates were reacted with equal volume of substrate reagent containing 10 mM p-nitrophenyl phosphate (pNPP). After 1 h incubation at 37° C., the reaction was stopped with 1N NaOH and the developed color was read at 405 nm. The specific enzyme activity was calculated by using an extinction coefficient of 1.78×10^4 M^−1cm^−1 for pNPP at A405. The inhibition shown by 7-HF is depicted in Figure VII.

For assay [1], the system named is CD36. Briefly: Immunoblot of CD36 expression in 3T3-L1 adipocytes. To be noted: 1 ug/ml; normalized with actin. In kind it is cell-based, mouse. The procedure: (§1) Experimental protocol: Mouse pre-adipocyte 3T3-L1 cells are maintained in Dulbecco's Modified Eagles Medium (DMEM) supplemented with 2 mM glutamine, 4.5 g/L glucose and 10% fetal bovine serum. Equal number of cells was plated in each well of 24-well culture plates. Cells were pre-treated separately with 1 μg/mL 7-hydroxyfrullanolide for 2 h and followed by addition of differentiation medium containing 500 nM insulin, 1.0 μM dexamethasone, and 0.5 mM isobutylmethylxanthine (IBMX) for 48 h. Thereafter, cells were further incubated with post differentiation medium (DMEM containing 100 nM insulin) in presence or absence of 7-HF. […] Protein content was measured in Bradford method by using Coomassie blue dye and cell lysates were stored in aliquots at −80° C. until further use. The modulation of adipocyte differentiation markers such as Peroxisome proliferator-activated receptor gamma (PPARγ), CD36, adipocyte fatty acid binding protein (aP2); and intracellular lipid droplet surface associated protein, perilipin expression were evaluated by immunoblot assay.
(§2) Inhibition of protein expression of biomarker molecules adipocytes in presence or absence of 7-hydroxyfrullanolide (7-HF) was evaluated in immunoblot assay. […] Band intensities were calculated densitometrically and normalized with expression of actin in respective samples.
(In general: In western blotting, separated proteins are transferred to a membrane and probed.)

For a further assay, the system named is PPARγ. Briefly: Immunoblot of PPARγ expression in 3T3-L1 adipocytes. In kind it is cell-based, mouse. To be noted: 1 ug/ml; normalized with actin. The procedure:
as §1, §2

The test system of a further assay is perilipin. Briefly: Immunoblot of perilipin expression in 3T3-L1 adipocytes. In kind it is cell-based, mouse. To be noted: 1 ug/ml; normalized with actin. The method, then: as §1, §2
For assay [2], the system named is J774 mouse macrophage cells. Briefly: Lipid accumulation in high glucose induced macrophage cells (in vitro model of atherosclerosis). Type of assay: cell-based. The following applies: 1 μg/ml; 600 mg/dL glucose, 5 days. The procedure:
(§3) Experimental protocol: This was evaluated in glucose induced J774, mouse macrophage cells. Briefly, the cells were cultured in DMEM with 2 mM Glutamine, 100 U/mL penicillin, […] streptomycin and 10% fetal bovine serum (Hyclone, Logan, Utah). Equal number of cells was seeded into 35 mm petri dishes (Corning, USA) one day before the experiment. The culture media was replaced with fresh, glucose free DMEM supplemented with 10% fetal bovine serum. 7-HF was diluted at […] and all cultures were pre-incubated for 2 hours at 5% CO2 at 37° C., and then incubated with 600 mg/dL of glucose for 5 days. Representative photomicrographs showing inhibition of lipid accumulation by 7-HF in high glucose induced macrophage cells of an in vitro model of atherosclerosis are shown in Figure IV. The control culture was supplemented with 100 mg/dL glucose. The cells were harvested and lysed with lysis buffer. Cell lysates were clarified at 14,000 g. Protein concentration was measured by Bradford method.

Assay [3] concerns CD36. Briefly: Immunoblot of CD36 expression in high glucose induced J774 macrophage cells. Type of assay: cell-based, mouse. The following applies: 1 μg/ml; 600 mg/dL glucose, 5 days. The procedure: as §3, with “The cells were harvested and lysed with lysis buffer. Cell lysates were clarified at 14,000 g.” left out
Inhibition of CD36 protein expression in high glucose induced J774 macrophage cells in presence or absence of 7-HF was evaluated in immunoblot assay. […] Finally, the specific immuno-reactive bands were developed with West-pico chemiluminescent substrate (Pierce Biotechnology, IL, USA), and the immunoblot images were recorded in a Kodak Image Station (Kodak, USA). Band intensities were calculated densitometrically and normalized with expression of actin in respective samples.

The test system of another assay is human endothelial cells. Briefly: Nitrite assay (Griess reagent), nitric oxide production. To be noted: 0.1, 0.25, 0.50, 1.00 ng/ml; 24 h. In kind it is cell-based. The method, then: Equal number (5000 cells) of human endothelial cells was plated in each well of a 96-well cell culture plate. The cells were treated with various concentrations (0.1, 0.25, 0.5 and 1.0 ng/ml) of 7-HF for 24 h. The control cultures received 0.01% (v/v) DMSO as the vehicle. After 24 h, the culture supernatants were collected and mixed with equal volume of Griess reagent [1:1 mixture of NED solution (0.1% N-1-napthylethulenediamine dihydrochloride in water) and Sulfanylamide solution (1% sulfanilamide in 5% phosphoric acid)]. The reaction was allowed for 10 min at room temperature. Finally, the color reaction was read at 550 nm in a micro-plate reader (BioRad, USA). Known concentrations of sodium nitrite were reacted to obtain a standard curve. Modulation of nitrite production in 7-HF treated cultures was quantitatively assessed by extrapolating the absorbance readings obtained from the test samples into the standard plot.
In general terms: Griess reagent forms a coloured azo dye with nitrite.

Turning to `C=C1C(=O)O[C@H]2C3=C(C)CCC[C@]3(C)CC[C@@]12O` [7-HF (1), 7-hydroxyfrullanolide], the PTP-1B activity entry in the assay on PTP-1B is listed as “significant inhibition”. Moreover, the CD36 protein expression result in the assay on CD36 [1] is “down-regulation”. Also, in the assay with PPARγ, the PPARγ protein expression entry is “down-regulation”. Moreover, the perilipin protein expression result in the assay on perilipin is listed as “down-regulation”. In addition, in assay [2], the “lipid accumulation in high glucose induced macrophage cells” value is “inhibited lipid accumulation”. In the assay on CD36 [3], the “CD36 levels in high glucose induced macrophage cells” value was “reduced back towards their base values”. The “NO concentration (nitrite) in cell culture supernatant” value in the assay on human endothelial cells is “significant and dose dependent increase”.
